From ChEMBL document CHEMBL1143583, “Anchor-GRIND: filling the gap between standard 3D QSAR and the GRid-INdependent descriptors” (J Med Chem, 2005)
pIC50: −log10 of the molar value.

Biological target: Genome polyprotein (Hepatitis C virus genotype 1a (isolate 1) (HCV), UniProt P26664)
Assay: Inhibitory concentration against hepatitis C virus NS3 protease (IC50 spans 2.5 log units)
Parameters: species or system Hepacivirus hominis
Conditions: read-out: Log 1/IC50 (converted)

Sequence of Genome polyprotein (P26664 1027-1657 limits assumed): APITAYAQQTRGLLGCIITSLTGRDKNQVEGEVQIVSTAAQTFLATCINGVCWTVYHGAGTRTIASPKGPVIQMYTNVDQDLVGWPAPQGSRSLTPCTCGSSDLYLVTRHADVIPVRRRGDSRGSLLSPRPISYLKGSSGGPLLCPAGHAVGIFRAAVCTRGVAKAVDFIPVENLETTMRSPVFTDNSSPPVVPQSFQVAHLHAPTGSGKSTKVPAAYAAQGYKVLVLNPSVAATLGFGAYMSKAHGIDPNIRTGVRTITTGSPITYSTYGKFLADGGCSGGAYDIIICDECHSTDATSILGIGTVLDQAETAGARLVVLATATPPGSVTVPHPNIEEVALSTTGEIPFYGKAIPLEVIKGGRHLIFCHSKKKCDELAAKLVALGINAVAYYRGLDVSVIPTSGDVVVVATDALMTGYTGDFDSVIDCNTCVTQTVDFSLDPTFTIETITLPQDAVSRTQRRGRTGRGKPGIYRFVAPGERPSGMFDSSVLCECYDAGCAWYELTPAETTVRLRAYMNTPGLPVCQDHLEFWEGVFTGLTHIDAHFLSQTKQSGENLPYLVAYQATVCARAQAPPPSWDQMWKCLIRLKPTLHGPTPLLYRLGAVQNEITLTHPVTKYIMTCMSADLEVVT

SMILES	IC50
CC(=O)N[C@H](C(=O)N[C@H](C(=O)C1C[C@H](Oc2ccc(Cl)cc2)C[C@H]1C(=O)CC1(C(=O)O)CC1)C(C)C)C1CCCCC1 (stereo not given in full)	50.1 µM
CC(=O)N[C@H](C(=O)N[C@H](C(=O)C1C[C@H](Oc2ccc(F)cc2)C[C@H]1C(=O)CC1(C(=O)O)CC1)C(C)C)C1CCCCC1 (stereo not given in full)	100 µM
CC(=O)N[C@H](C(=O)N[C@H](C(=O)C1C[C@H](Oc2cccc(Br)c2)C[C@H]1C(=O)CC1(C(=O)O)CC1)C(C)C)C1CCCCC1 (stereo not given in full)	50.1 µM
CC(=O)N[C@H](C(=O)N[C@H](C(=O)C1C[C@H](Oc2nc3ccccc3s2)C[C@H]1C(=O)CC1(C(=O)O)CC1)C(C)C)C1CCCCC1 (stereo not given in full)	20 µM
CC(=O)N[C@H](C(=O)N[C@H](C(=O)C1C[C@H](Sc2ccc(Br)cc2)C[C@H]1C(=O)CC1(C(=O)O)CC1)C(C)C)C1CCCCC1 (stereo not given in full)	39.8 µM
CC(=O)N[C@H](C(=O)N[C@H](C(=O)C1C[C@H](Oc2ccnc3ccccc23)C[C@H]1C(=O)CC1(C(=O)O)CC1)C(C)C)C1CCCCC1 (stereo not given in full)	5.01 µM
CC(=O)N[C@H](C(=O)N[C@H](C(=O)C1C[C@H](Oc2ccc(Br)cc2)C[C@H]1C(=O)CC1(C(=O)O)CC1)C(C)C)C1CCCCC1 (stereo not given in full)	25.1 µM
COc1ccc2c(O[C@H]3CC(C(=O)[C@@H](NC(=O)[C@@H](NC(C)=O)C4CCCCC4)C(C)C)[C@H](C(=O)CC4(C(=O)O)CC4)C3)ccnc2c1 (stereo not given in full)	0.794 µM
CC(=O)N[C@H](C(=O)N[C@H](C(=O)C1C[C@H](Oc2ccccc2-c2ccc(C(=O)O)cc2)C[C@H]1C(=O)CC1(C(=O)O)CC1)C(C)C)C1CCCCC1 (stereo not given in full)	> 200 µM
CC(=O)N[C@H](C(=O)N[C@H](C(=O)C1C[C@H](Oc2ccncc2)C[C@H]1C(=O)CC1(C(=O)O)CC1)C(C)C)C1CCCCC1 (stereo not given in full)	158 µM
CC(=O)N[C@H](C(=O)N[C@H](C(=O)C1C[C@H](Oc2ccc(-c3ccccc3)cc2)C[C@H]1C(=O)CC1(C(=O)O)CC1)C(C)C)C1CCCCC1 (stereo not given in full)	31.6 µM
CC(=O)N[C@H](C(=O)N[C@H](C(=O)C1C[C@H](Oc2ccnc3cc(Cl)ccc23)C[C@H]1C(=O)CC1(C(=O)O)CC1)C(C)C)C1CCCCC1 (stereo not given in full)	2 µM
CC(=O)N[C@H](C(=O)N[C@H](C(=O)C1C[C@H](Oc2ccccc2Br)C[C@H]1C(=O)CC1(C(=O)O)CC1)C(C)C)C1CCCCC1 (stereo not given in full)	25.1 µM
CC(=O)N[C@H](C(=O)N[C@H](C(=O)C1C[C@H](Oc2cccnc2)C[C@H]1C(=O)CC1(C(=O)O)CC1)C(C)C)C1CCCCC1 (stereo not given in full)	200 µM
CC(=O)N[C@H](C(=O)N[C@H](C(=O)C1C[C@H](Oc2cccc(-c3cccc([N+](=O)[O-])c3)c2)C[C@H]1C(=O)CC1(C(=O)O)CC1)C(C)C)C1CCCCC1 (stereo not given in full)	6.31 µM
COc1ccc(-c2ccc(O[C@H]3CC(C(=O)[C@@H](NC(=O)[C@@H](NC(C)=O)C4CCCCC4)C(C)C)[C@H](C(=O)CC4(C(=O)O)CC4)C3)cc2)cc1 (stereo not given in full)	31.6 µM
CC(=O)N[C@H](C(=O)N[C@H](C(=O)C1C[C@H](O)C[C@H]1C(=O)CC1(C(=O)O)CC1)C(C)C)C1CCCCC1 (stereo not given in full)	> 1000 µM

SMILES	IC50
COc1ccc(-c2ccccc2O[C@H]2CC(C(=O)[C@@H](NC(=O)[C@@H](NC(C)=O)C3CCCCC3)C(C)C)[C@H](C(=O)CC3(C(=O)O)CC3)C2)cc1 (stereo not given in full)	> 200 µM
CC(=O)N[C@H](C(=O)N[C@H](C(=O)C1C[C@H](Oc2nccc3ccccc23)C[C@H]1C(=O)CC1(C(=O)O)CC1)C(C)C)C1CCCCC1 (stereo not given in full)	7.94 µM
CC(=O)Nc1cccc(-c2cccc(O[C@H]3CC(C(=O)[C@@H](NC(=O)[C@@H](NC(C)=O)C4CCCCC4)C(C)C)[C@H](C(=O)CC4(C(=O)O)CC4)C3)c2)c1 (stereo not given in full)	6.31 µM
CC(=O)N[C@H](C(=O)N[C@H](C(=O)C1C[C@H](Oc2ccc(I)cc2)C[C@H]1C(=O)CC1(C(=O)O)CC1)C(C)C)C1CCCCC1 (stereo not given in full)	10 µM
CC(=O)N[C@H](C(=O)N[C@H](C(=O)C1C[C@H](Oc2ccnc3cc(C(F)(F)F)ccc23)C[C@H]1C(=O)CC1(C(=O)O)CC1)C(C)C)C1CCCCC1 (stereo not given in full)	6.31 µM
CC(=O)N[C@H](C(=O)N[C@H](C(=O)C1C[C@H](Oc2cccc(-c3ccccc3)c2)C[C@H]1C(=O)CC1(C(=O)O)CC1)C(C)C)C1CCCCC1 (stereo not given in full)	6.31 µM
CC(=O)N[C@H](C(=O)N[C@H](C(=O)C1C[C@H](Oc2cccnc2-c2ccsc2)C[C@H]1C(=O)CC1(C(=O)O)CC1)C(C)C)C1CCCCC1 (stereo not given in full)	> 200 µM
CC(=O)N[C@H](C(=O)N[C@H](C(=O)C1C[C@H](Oc2cccc3cccnc23)C[C@H]1C(=O)CC1(C(=O)O)CC1)C(C)C)C1CCCCC1 (stereo not given in full)	251 µM
CC(=O)N[C@H](C(=O)N[C@H](C(=O)C1C[C@H](Oc2ccccc2)C[C@H]1C(=O)CC1(C(=O)O)CC1)C(C)C)C1CCCCC1 (stereo not given in full)	79.4 µM
CC(=O)N[C@H](C(=O)N[C@H](C(=O)C1C[C@H](Oc2ccc(Cl)c3cccnc23)C[C@H]1C(=O)CC1(C(=O)O)CC1)C(C)C)C1CCCCC1 (stereo not given in full)	100 µM
CC(=O)N[C@H](C(=O)N[C@H](C(=O)C1C[C@H](Oc2cncc3ccccc23)C[C@H]1C(=O)CC1(C(=O)O)CC1)C(C)C)C1CCCCC1 (stereo not given in full)	3.98 µM
CC(=O)N[C@H](C(=O)N[C@H](C(=O)C1C[C@H](Sc2nc3ccccc3s2)C[C@H]1C(=O)CC1(C(=O)O)CC1)C(C)C)C1CCCCC1 (stereo not given in full)	20 µM
CC(=O)N[C@H](C(=O)N[C@H](C(=O)C1C[C@H](Sc2ccnc3cc(C(F)(F)F)ccc23)C[C@H]1C(=O)CC1(C(=O)O)CC1)C(C)C)C1CCCCC1 (stereo not given in full)	10 µM
COc1ccc2nccc(O[C@H]3CC(C(=O)[C@@H](NC(=O)[C@@H](NC(C)=O)C4CCCCC4)C(C)C)[C@H](C(=O)CC4(C(=O)O)CC4)C3)c2c1 (stereo not given in full)	15.8 µM
CC(=O)N[C@H](C(=O)N[C@H](C(=O)C1C[C@H](Oc2ccccc2-c2ccccc2)C[C@H]1C(=O)CC1(C(=O)O)CC1)C(C)C)C1CCCCC1 (stereo not given in full)	> 200 µM
CC(=O)N[C@H](C(=O)N[C@H](C(=O)C1C[C@H](Oc2cccc(N3CCOCC3)c2)C[C@H]1C(=O)CC1(C(=O)O)CC1)C(C)C)C1CCCCC1 (stereo not given in full)	31.6 µM

Biological target: Acetylcholinesterase (Homo sapiens, UniProt P22303)
Assay: Inhibitory concentration against Acetylcholinesterase; (range = 2-20 uM)
Conditions: not given

Sequence of Acetylcholinesterase (P22303 whole entry): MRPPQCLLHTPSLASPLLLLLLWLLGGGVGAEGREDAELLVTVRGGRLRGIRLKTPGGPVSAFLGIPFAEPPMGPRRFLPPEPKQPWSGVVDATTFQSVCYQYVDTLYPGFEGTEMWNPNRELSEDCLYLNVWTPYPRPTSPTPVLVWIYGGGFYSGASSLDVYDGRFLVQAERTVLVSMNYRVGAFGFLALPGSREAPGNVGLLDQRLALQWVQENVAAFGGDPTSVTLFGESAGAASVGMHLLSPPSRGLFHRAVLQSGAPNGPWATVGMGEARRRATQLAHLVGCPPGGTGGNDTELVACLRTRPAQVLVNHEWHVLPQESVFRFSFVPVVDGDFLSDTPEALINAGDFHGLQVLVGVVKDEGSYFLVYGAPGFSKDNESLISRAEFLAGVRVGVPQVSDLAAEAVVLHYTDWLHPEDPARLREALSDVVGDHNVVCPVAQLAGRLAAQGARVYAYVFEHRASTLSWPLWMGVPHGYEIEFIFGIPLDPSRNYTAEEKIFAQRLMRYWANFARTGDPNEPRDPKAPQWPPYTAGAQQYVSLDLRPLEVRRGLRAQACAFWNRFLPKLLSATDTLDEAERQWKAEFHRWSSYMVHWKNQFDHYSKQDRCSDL

SMILES	pIC50
O=C1CN(CCN2CCOCC2)C(=O)CN1CCC(c1ccccc1)c1ccccc1	4.70
CC1CCCCN1CCCN1CC(=O)N(CCc2ccc(F)cc2)CC1=O (stereo not given)	4.70
O=C1CN(CCN2CCCC2)C(=O)CN1CCCn1ccnc1	4.70
COc1ccc(CCN2CC(=O)N(CCc3ccccn3)CC2=O)cc1OC	4.70
CC(C)N(CCN1CC(=O)N(CCc2ccc(Cl)cc2Cl)CC1=O)C(C)C	4.70
CCN(CC)CCCN1CC(=O)N(C2CC2)CC1=O	4.70
CCN(CC)CCN1CC(=O)N(CCc2ccccc2)CC1=O	4.70
